Measurements published in patent US7205403B2, “8-Heteroaryl xanthine adenosine A2B receptor antagonists” (King Pharmaceuticals Research and Development, Inc., priority 2002, dated 2007).
Entries after “also recorded” stand apart in the source; their conditions may differ. Like-named read-outs stand apart in the source and are kept apart here.

Tests used:
[1] = target: T1, human A2B adenosine receptor (Homo sapiens, UniProt P29275); assay: [3H]DPCPX binding to human A2B receptors expressed in HEK293 cells; design: host or cells: HEK 293 cells (membranes)
T1 sequence (P29275 1-332): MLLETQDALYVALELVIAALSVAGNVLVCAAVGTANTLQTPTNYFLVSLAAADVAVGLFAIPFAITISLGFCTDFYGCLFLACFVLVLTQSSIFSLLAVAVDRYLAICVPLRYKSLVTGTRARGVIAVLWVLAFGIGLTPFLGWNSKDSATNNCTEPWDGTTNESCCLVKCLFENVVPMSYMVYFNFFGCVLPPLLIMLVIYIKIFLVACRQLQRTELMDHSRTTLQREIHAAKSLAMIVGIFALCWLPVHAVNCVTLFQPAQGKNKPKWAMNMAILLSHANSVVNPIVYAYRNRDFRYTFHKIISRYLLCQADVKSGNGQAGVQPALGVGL
Method in brief: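 Membranes (20 μg protein) from HEK293 cells expressing recombinant human A2B receptor were incubated 60 min at 25° C with 40 nM [3H]-DPCPX and 6–8 compound concentrations. Buffer was Tris-HCl with MgCl2, 1 mM EDTA, 0.1 mM benzamidine and 2 IU/ml adenosine deaminase, pH 7.4. Filter-bound radioactivity gave the inhibitory binding constant.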

[2] = target: T2, human A1 adenosine receptor (Homo sapiens, UniProt P30542); assay: [3H]DPCPX binding to human A1 receptors expressed in CHO cells
T2 construct: expressed in transfected cells; host or cells: CHO cells (membranes)
T2 sequence (P30542 1-326): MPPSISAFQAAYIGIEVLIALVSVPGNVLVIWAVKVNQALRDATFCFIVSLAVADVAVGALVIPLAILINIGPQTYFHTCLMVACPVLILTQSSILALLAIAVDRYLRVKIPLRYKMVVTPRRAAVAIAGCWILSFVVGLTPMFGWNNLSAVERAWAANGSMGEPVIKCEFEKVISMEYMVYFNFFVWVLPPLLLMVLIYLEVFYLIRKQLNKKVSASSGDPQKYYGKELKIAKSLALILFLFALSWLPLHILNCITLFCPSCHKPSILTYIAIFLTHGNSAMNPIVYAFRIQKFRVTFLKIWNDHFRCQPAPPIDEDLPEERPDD
Procedure: The cells were grown adherently and maintained in Dulbecco's modified Eagle's medium with nutrient mixture F12 without nucleosides at 37° C. in 5% CO2/95% air. The cells were washed with phosphate-buffered saline and scraped off flasks in ice cold hypotonic buffer ([…] Tris HCl, 2 mM EDTA, pH 7.4). The cell suspension was homogenized with a Polytron and the homogenate was centrifuged for 30 minutes at 48,000 g. The resultant membrane pellet was re-suspended in 50 mM Tris HCl buffer at pH 7.4 for A1 adenosine receptors; in 50 mM Tris HCl 10 mM MgCl, at pH 7.4 for A2A adenosine receptors; in 50 mM Tris HCl, 10 mM MgCl2, 1 mM EDTA, at pH 7.4 for A3 adenosine receptors and were utilized for binding assays.
Displacement experiments were performed for 120 minutes at 25° C. in 200 μl of buffer containing 1 nM ^3H]-DPCPX 20 μl of diluted membranes (50 μg of protein/assay) and at least 6 to 8 different concentrations of examined compounds.
The filter bound radioactivity was counted on Top Count (efficiency 57%) with Micro-Scint 20.
The filter bound radioactivity was counted on a Top Count brand Microplate Scintillation Counter (efficiency 57%) with Micro-Scint 20. […] Inhibitory binding constant. […] Results and Discussion

[3] = target: T3, human A2A adenosine receptor (Homo sapiens, UniProt P29274); assay: [3H]ZM241385 binding to human A2A receptors expressed in CHO cells; settings: for Ki, [3H]ZM241385 binding to human A2A receptors expressed in CHO cells: geometric mean (95% confidence interval), >1000 = no appreciable binding
T3 construct: expressed in transfected cells; host or cells: CHO cells (membranes)
T3 sequence (P29274 whole entry): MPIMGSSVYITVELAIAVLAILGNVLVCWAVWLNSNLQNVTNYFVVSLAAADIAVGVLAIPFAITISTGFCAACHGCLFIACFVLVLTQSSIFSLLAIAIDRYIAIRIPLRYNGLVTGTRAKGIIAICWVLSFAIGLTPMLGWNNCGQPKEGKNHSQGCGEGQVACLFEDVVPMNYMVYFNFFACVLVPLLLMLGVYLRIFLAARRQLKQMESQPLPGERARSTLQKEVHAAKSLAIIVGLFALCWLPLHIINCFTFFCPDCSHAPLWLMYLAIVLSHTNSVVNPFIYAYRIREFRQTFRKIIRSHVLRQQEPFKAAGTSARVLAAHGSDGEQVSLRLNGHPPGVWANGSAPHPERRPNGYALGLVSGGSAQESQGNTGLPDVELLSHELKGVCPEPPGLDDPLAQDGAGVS
Method in brief: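 Membranes from adherent CHO cells, resuspended in 50 mM Tris HCl with 10 mM MgCl2, pH 7.4. The inhibitory binding constant is reported.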

[4] = target: T1, human A2B adenosine receptor; assay: Cyclic AMP assay, antagonism of NECA-stimulated cAMP in CHO cells transfected with human A2B receptors; type: cell-based
Procedure: Measurement of cyclic AMP (CAMP) levels in CHO cells transfected with human A2B adenosine receptors was performed in the following manner. CHO cells transfected with human A2B adenosine receptors were washed with phosphate-buffered saline, diluted tripsine and centrifuged for 10 minutes at 200 g.
The reaction was terminated by the addition of cold 6% thrichloroacetic acid (TCA). The TCA suspension was centrifuged at 2000 g for 10 minutes at 4° C. and the supernatant was extracted four times with water saturated diethyl ether. The final aqueous, solution was tested for cAMP levels by a competition protein binding assay. Samples of cAMP standard (0–10 pmoles) were added to each test tube containing the incubation buffer (trizma base 0.1 M, aminophylline 8.0 mM, 2-mercaptoethanol 6.0 mM, pH 7.4) and [H^3]-cAMP in a total volume of 0.5 ml. The binding protein previously prepared from beef adrenals, was added to the samples previously incubated at 4° C. for 150 minutes, and after the addition of charcoal were centrifuged at 2000 g for 10 minutes. The clear supernatant was counted in a Beckman scintillation counter.
Finally, to evaluate the regulation of adenylyl cyclase activity and to test whether the binding parameters correlated with the functional response, the IC50 values were obtained for inhibition of cAMP production by antagonists. In particular, we evaluated the capability of the several compounds to inhibit NECA (100 nM)-stimulated cyclic AMP accumulation.

[5] = target: T4, human A3 adenosine receptor (Homo sapiens, UniProt P0DMS8); assay: [3H]MRE3008F20 binding to human A3 receptors expressed in CHO cells; settings: for Ki, [3H]MRE3008F20 binding to human A3 receptors expressed in CHO cells: geometric mean (95% confidence interval), >1000 = no appreciable binding
T4 construct: expressed in transfected cells; host or cells: CHO cells (membranes)
T4 sequence (P0DMS8 1-318): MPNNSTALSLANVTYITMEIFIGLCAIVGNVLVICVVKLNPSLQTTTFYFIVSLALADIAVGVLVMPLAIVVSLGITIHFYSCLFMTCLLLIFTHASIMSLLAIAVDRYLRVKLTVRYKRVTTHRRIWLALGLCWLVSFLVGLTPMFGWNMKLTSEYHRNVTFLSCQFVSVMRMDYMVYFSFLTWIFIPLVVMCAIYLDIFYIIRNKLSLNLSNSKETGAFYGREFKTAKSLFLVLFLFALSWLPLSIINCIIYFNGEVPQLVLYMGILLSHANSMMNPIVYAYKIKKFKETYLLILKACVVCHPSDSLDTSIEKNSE
Method in brief: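 CHO cell membranes (50 μg protein) competed against 1 nM [3H]-MRE3008-F20 in 50 mM Tris HCl, MgCl2, pH 7.4, with 6–8 ligand concentrations in duplicate, 120 minutes at 4° C. Filter-bound radioactivity counted by scintillation; inhibitory binding constants derived.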

[6] = Table 2, geometric mean (95% confidence limits), at least three experiments in duplicate, read-out: [3H]-DPCPX binding to human A2B receptors in HEK 293 cells Ki
[7] = geometric mean (95% confidence interval), >1000 = no appreciable binding, read-out: Ki, [3H]DPCPX binding to human A2B receptors expressed in HEK293 cells
[8] = geometric mean (95% confidence interval), >1000 = no appreciable binding
[9] = read-out: Ki, [3H]ZM241385 binding to human A2A receptors expressed in CHO cells
[10] = inhibition of NECA (100 nM)-stimulated cAMP, geometric mean (95% confidence limits)

Compound | Ki [1, 6] | Ki [1, 7] | Ki, [3H]DPCPX binding to human A1 receptors expressed in CHO cells [2, 8] | Ki, [3H]ZM241385 binding to human A2A receptors expressed in CHO cells [3] | Ki [3, 9] | IC50 [4, 10] | Ki [5] | Ki, [3H]MRE3008F20 binding to human A3 receptors expressed in CHO cells [5] | Ki [2, 8] | IC50 [4] | Ki [3] | Ki [2]
CCCn1c(=O)c2[nH]c(-c3cc(NC(=O)Cc4ccc(OC)c(OC)c4)nn3C)nc2n(CCC)c1=O [AS28, 2-(3,4-dimethoxyphenyl)-N-[5-(2,6-dioxo-1,3-dipropyl-2,3,6,9-tetrahydro-1H-purin-8-yl)-1-methyl-1H-pyrazol-3-yl]acetamide] | 38 nM | 38 nM | no appreciable binding; also recorded: without significant binding | no appreciable binding; also recorded: without significant binding | > 1000 nM | 120 nM | > 1000 nM | no appreciable binding; also recorded: without significant binding |  |  |  | 
CCCn1c(=O)c2[nH]c(-c3cc(NC(=O)Nc4cccc(Cl)c4)nn3C)nc2n(CCC)c1=O [AS54, N-(3-chlorophenyl)-N'-[5-(2,6-dioxo-1,3-dipropyl-2,3,6,7-tetrahydro-1H-purin-8-yl)-1-methyl-1H-pyrazol-3-yl]urea] | 39 nM | 39 nM |  |  | > 1000 nM |  | > 1000 nM |  | 448 nM | 136 nM |  | 
CCCn1c(=O)c2[nH]c(-c3cc(NC(=O)Cc4ccc(OCc5ccccc5C(F)(F)F)cc4)nn3C)nc2n(CCC)c1=O [AS29, N-[5-(2,6-dioxo-1,3-dipropyl-2,3,6,9-tetrahydro-1H-purin-8-yl)-1-methyl-1H-pyrazol-3-yl]-2-(4-{[2-(trifluoromethyl)benzyl]oxy}phenyl)acetamide] | 13 nM | 13 nM |  |  | > 1000 nM | 93 nM | > 1000 nM |  | 56 nM |  |  | 
CCCn1c(=O)c2[nH]c(-c3cc(NC(=O)Cc4ccc5c(c4)OCO5)nn3C)nc2n(CCC)c1=O [AS57, 2-(1,3-benzodioxol-5-yl)-N-[5-(2,6-dioxo-1,3-dipropyl-2,3,6,9-tetrahydro-1H-purin-8-yl)-1-methyl-1H-pyrazol-3-yl]acetamide] | 18 nM | 18 nM |  |  |  | 95 nM | > 1000 nM |  | 566 nM |  | 1250 nM | 
CCCn1c(=O)c2[nH]c(-c3cc(NC(=O)Cc4ccccc4)n(C)n3)nc2n(CCC)c1=O [AS35] | 34 nM | 34 nM |  |  |  | 152 nM |  |  |  |  |  | 
CCCn1c(=O)c2[nH]c(-c3cc(N)nn3C)nc2n(CCC)c1=O [AS3, 8-(3-amino-1-methyl-1H-pyrazol-5-yl)-1,3-dipropyl-3,7-dihydro-1H-purine-2,6-dione] |  | 235 nM |  |  | > 1000 nM |  | > 1000 nM |  | 201 nM |  |  | 
CC(C)Cn1c(=O)c2[nH]c(-c3cc(OCC(=O)Nc4ccc(Br)cc4)n(C)n3)nc2n(CC(C)C)c1=O [AS63, 2-{[3-(1,3-diisobutyl-2,6-dioxo-2,3,6,9-tetrahydro-1H-purin-8-yl)-1-methyl-1H-pyrazol-5-yl]oxy}-N-(4-bromophenyl)acetamide] |  | 66 nM |  |  | > 1000 nM |  | > 1000 nM |  | 49 nM |  |  | 
CCCn1c(=O)c2[nH]c(-c3cc(NC(=O)Nc4ccc(N(C)C)cc4)nn3C)nc2n(CCC)c1=O [AS53, N-[4-(dimethylamino)phenyl]-N'-[5-(2,6-dioxo-1,3-dipropyl-2,3,6,7-tetrahydro-1H-purin-8-yl)-1-methyl-1H-pyrazol-3-yl]urea] |  | 59 nM |  |  | > 1000 nM |  | > 1000 nM |  | 2410 nM |  |  | 
CCCn1c(=O)c2[nH]c(-c3cc(NC(=O)COc4ccc(Cl)cc4Cl)nn3C)nc2n(CCC)c1=O [AS12, 2-(2,4-dichlorophenoxy)-N-[5-(2,6-dioxo-1,3-dipropyl-2,3,6,7-tetrahydro-1H-purin-8-yl)-1-methyl-1H-pyrazol-3-yl]acetamide] |  | > 1000 nM |  |  | > 1000 nM |  | > 1000 nM |  |  |  |  | > 1000 nM
CCCn1c(=O)c2[nH]c(-c3cc(NC(=O)COc4ccc(Cl)cc4)nn3C)nc2n(CCC)c1=O [AS21, 2-(4-chlorophenoxy)-N-[5-(1,3-dipropyl-2,6-dioxo-2,3,6,7-tetrahydro-1H-purin-8-yl)-1-methyl-1H-pyrazol-3-yl]acetamide] |  | > 1000 nM |  |  | > 1000 nM |  | > 1000 nM |  |  |  |  | > 1000 nM
CCCn1c(=O)c2c(nc(/C=C/c3cc(COC(=O)c4ccccc4)on3)n2C)n(CCC)c1=O [AS20, {3-[(E)-2-(1,3-dipropyl-7-methyl-2,6-dioxo-2,3,6,7-tetrahydro-1H-purin-8-yl)vinyl]isoxazol-5-yl}methyl benzoate] |  | > 1000 nM |  |  | > 1000 nM |  | > 1000 nM |  |  |  |  | > 1000 nM
CCCn1c(=O)c2[nH]c(-c3cc(NC(=O)Cc4ccc(OCc5ccccc5)cc4)nn3C)nc2n(CCC)c1=O [AS16, 2-[4-benzyloxyphenyl]-N-[5-(2,6-dioxo-1,3-dipropyl-2,3,6,9-tetrahydro-1H-purin-8-yl)-1-methyl-1H-pyrazol-3-yl]acetamide] |  | 56 nM | no appreciable affinity; also recorded: without significant binding | no appreciable affinity; also recorded: without significant binding | > 1000 nM |  | > 1000 nM | no appreciable affinity; also recorded: without significant binding |  |  |  | 
CCCn1c(=O)c2[nH]c(-c3cc(NC(=O)CCCN)nn3C)nc2n(CCC)c1=O [AS10, 4-{[5-(2,6-dioxo-1,3-dipropyl-2,3,6,7-tetrahydro-1H-purin-8-yl)-1-methyl-1H-pyrazol-3-yl]amino}-4-oxobutan-1-aminium chloride] |  | 2060 nM |  |  | > 1000 nM |  | > 1000 nM |  | 548 nM |  |  | 
